Measurements from patent publication US10399968B2, “Hydroxyalkyl thiadiazole derivatives” (Daiichi Sankyo Company, Limited, priority 2015, dated 2019).
pIC50: −log10 of the molar value. Converted amounts (≈) assume the structure as drawn. Read-outs that look alike come from different tables or passages of the source.

Key:
[1] = test system: S. aureus ATCC 29213; assay: Susceptibility of bacteria, broth microdilution MIC; type: cell-based; conditions: Staphylococcus aureus, ATCC29213
Experimental: The antibacterial activity of the compounds of the present invention was tested by the broth microdilution method. The assay was carried out according to the CLSI guidelines for managing the procedures of susceptibility tests: “M7-A7 Methods for Dilution Antimicrobial Susceptibility Tests for Bacteria That Grow Aerobically; Approved Standard-Seventh Edition (2006)”. Test strains were grown on appropriate agar plates overnight. A broth containing the test compound diluted serially 2-fold and diluents were dispensed at 100 μL to each well of a 96-well microplate. As a growth control, a well with a broth not containing the test compound was also prepared. Colonies grown on the plates were suspended in saline, adjusted to 0.5 McFarland (OD625=0.08 to 0.10) using a colorimeter, and then diluted 10-fold with saline. The bacterial suspension was inoculated at 4 μL into each well of the microplate using a bacterial suspension inoculation apparatus. The inoculated microplate was incubated at 35° C. overnight (about 20 hours). The growth condition was observed by the naked eye, and the minimum concentration to inhibit bacterial proliferation was defined as a minimum inhibitory concentration (MIC). The MICs of compounds disclosed herein for E. faecium, Streptococcus pneumoniae and Haemophilus influenzae are shown in Table 2, while for S. aureus in Table 3.

[2] = test system: Clostridium difficile ATCC 43255; assay: Susceptibility of Clostridium difficile, agar dilution MIC; type: cell-based; conditions: Clostridioides difficile, ATCC43255, anaerobic
Experimental: The antibacterial activity of the compounds of the present invention against Clostridium difficile clinical isolates was tested by the agar dilution method. The assay was carried out according to the CLSI guidelines for managing the procedures of susceptibility tests “M11-A8, Methods for Antimicrobial Susceptibility Testing of Anaerobic Bacteria; Approved Standard-Eighth Edition. CLSI document (2012)”.
The test strains were spread on supplemented Brucella agar (SBA) plates and grown at 36° C. under anaerobic condition for 42 to 48 hours. The test compound dilutions were prepared with Brucella broth and SBA plates containing dilution of test compound were prepared. As an anaerobic growth control, plates not containing the test compound were also prepared. Colonies grown on plates were suspended with Brucella broth to adjust the turbidity to 0.5 McFarland using a densitometer. Suspension (1-2 μL) of the test strains was inoculated onto each agar surface by using a bacterial suspension inoculation apparatus. After anaerobic incubation at 36° C. for 42 to 48 hours, absence and presence of growth of each strain were examined with unaided eye. The MIC was determined at which a marked reduction occurs in the appearance of growth on the test plate as compared to that of growth on the anaerobic control plates.

[3] = Oral bioavailability (BA) in rats; type: in vivo; conditions: male, SD, blood; Rat, 2 mg/kg oral vs jugular vein
Experimental: To SD male rats (7 week-old) fasted overnight, a solution of the test compound Captisol® was administered into the jugular vein (3 animals) and a solution of Lutrol® F68 was administered orally (3 animals). The dose of the test compounds was 2 mg/kg body weight of the rat for both administration routes. The amount of Captisol® used was 0.36 mg/kg body weight of the rat. The amount of Lutrol® F68 used was 0.02 mg/kg body weight of the rat. The BA value was calculated by the formula below using the integration value (AUCiv(0-∞)) of the blood concentration extrapolated from time 0 to infinity after administration of both test compounds. The greater a BA value of the compound shown, the higher the oral bioavailability is.

[4] = Oral bioavailability (BA) in monkeys; type: in vivo, Macaca fascicularis; conditions: male, cynomolgus monkey, blood, 1 mg/kg oral vs jugular vein
Experimental: To male Macaca fascicularis (3 or 4 year-old) fasted overnight, a solution of the test compound Captisol® was administered into the jugular vein (3 animals) and a solution of Lutrol® F68 was orally administered (3 animals). The dose of both test compounds was 1 mg/kg body weight of the monkey. The amount of Captisol® used was 0.18 mg/kg body weight of the monkey. The amount of Lutrol® F68 used was 0.02 mg/kg body weight of the monkey. The BA value was calculated by the formula below using the integration value (AUCiv(0-∞)) of the blood concentration extrapolated from time 0 to infinity after administration of both test compounds. BA(%)=[[(AUCpo(0-∞))/(dose po)]/[(AUCiv(0-∞))/(dose iv)]]×100 The greater a BA value of the compound shown, the higher the oral bioavailability is.

[5] = target: Clostridium difficile DNA gyrase (Clostridioides difficile, UniProt Q18C89); assay: DNA supercoiling inhibition assay; type: biochemical; conditions: supercoiling of relaxed pBR322 DNA, 60 minutes at 37° C.
Sequence of Clostridium difficile DNA gyrase (Q18C90 entry or part of it): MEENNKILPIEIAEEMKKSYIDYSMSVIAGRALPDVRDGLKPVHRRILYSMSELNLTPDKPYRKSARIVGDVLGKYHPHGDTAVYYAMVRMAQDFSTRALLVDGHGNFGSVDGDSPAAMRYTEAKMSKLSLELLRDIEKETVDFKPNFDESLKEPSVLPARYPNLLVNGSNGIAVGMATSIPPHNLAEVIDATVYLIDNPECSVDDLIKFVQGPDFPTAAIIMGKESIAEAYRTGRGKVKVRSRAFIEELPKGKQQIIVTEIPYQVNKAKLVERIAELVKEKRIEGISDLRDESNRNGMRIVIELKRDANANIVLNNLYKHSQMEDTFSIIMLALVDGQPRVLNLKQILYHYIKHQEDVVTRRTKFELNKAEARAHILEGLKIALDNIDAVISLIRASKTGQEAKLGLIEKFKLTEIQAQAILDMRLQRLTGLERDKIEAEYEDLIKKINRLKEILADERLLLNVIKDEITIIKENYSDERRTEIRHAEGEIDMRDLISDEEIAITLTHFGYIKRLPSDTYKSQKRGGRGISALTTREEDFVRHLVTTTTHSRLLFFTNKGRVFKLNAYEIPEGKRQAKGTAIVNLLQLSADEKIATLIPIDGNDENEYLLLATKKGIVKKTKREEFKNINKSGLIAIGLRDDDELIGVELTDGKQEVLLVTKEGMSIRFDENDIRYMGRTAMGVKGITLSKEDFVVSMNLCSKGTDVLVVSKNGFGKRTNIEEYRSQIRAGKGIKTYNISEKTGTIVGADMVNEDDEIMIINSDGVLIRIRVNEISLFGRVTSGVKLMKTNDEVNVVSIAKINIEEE
Sequence of Clostridium difficile DNA gyrase (Q18C89 entry or part of it): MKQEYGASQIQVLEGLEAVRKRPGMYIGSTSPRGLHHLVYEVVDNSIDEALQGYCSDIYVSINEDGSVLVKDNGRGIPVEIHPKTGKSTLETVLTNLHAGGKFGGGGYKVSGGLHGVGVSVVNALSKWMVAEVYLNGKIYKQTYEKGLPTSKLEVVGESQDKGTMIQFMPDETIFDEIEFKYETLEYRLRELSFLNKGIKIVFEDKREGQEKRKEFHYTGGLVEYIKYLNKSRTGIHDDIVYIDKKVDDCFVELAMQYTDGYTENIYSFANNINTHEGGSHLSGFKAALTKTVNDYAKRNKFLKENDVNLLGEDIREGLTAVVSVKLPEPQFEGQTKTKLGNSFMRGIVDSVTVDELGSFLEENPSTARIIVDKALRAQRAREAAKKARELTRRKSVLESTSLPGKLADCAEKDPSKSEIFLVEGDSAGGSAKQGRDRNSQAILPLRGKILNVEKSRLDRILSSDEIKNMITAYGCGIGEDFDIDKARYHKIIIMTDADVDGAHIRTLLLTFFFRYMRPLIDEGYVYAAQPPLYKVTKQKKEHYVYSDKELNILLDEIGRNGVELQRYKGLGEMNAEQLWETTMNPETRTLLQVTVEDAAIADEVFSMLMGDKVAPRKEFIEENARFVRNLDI
Experimental: DNA supercoiling assays (30 μL reaction) were performed in a buffer containing 15 mM Tris-HCl pH 7.5, 13% glycerol, 6 mM MgCl2, 0.1 mg/mL BSA, 70 mM KCl, 1 mM dithioerythritol, 400 ng of DNA substrate (relaxed pBR322 DNA) and different concentrations of test compounds and/or standards. The dilutions of test compounds and standards were prepared in 20% dimethylsulfoxide (DMSO) and added 3 μL/reaction. The reaction was started by adding 2 μL amounts of Clostridium difficile DNA gyrase into the reaction mixtures and reactions were allowed to proceed for 60 minutes at 37° C. A reaction was carried out by adding 3 μL of 20% DMSO instead of test compound as full reaction control, and another reaction was carried out by adding sterile water instead of the enzyme as no reaction control.
Reactions were stopped by the addition of 5 μL of 6×loading dye and were analyzed by electrophoresis through 1.0% agarose gels with 1×TAE running buffer. Gels were run at 60 V for 3 hours, stained with EtBr, and visualized by Gel Doc system (BioRad). Intensity of the supercoiled DNA bands was quantified, and the IC50 of Clostridium difficile DNA gyrase was calculated using Graph Pad Prism.

[6] = test system: E. faecium ATCC 29212; assay: Susceptibility of bacteria, broth microdilution MIC; type: cell-based; conditions: Enterococcus faecium, ATCC29212
Experimental: (§1) The antibacterial activity of the compounds of the present invention was tested by the broth microdilution method. The assay was carried out according to the CLSI guidelines for managing the procedures of susceptibility tests: “M7-A7 Methods for Dilution Antimicrobial Susceptibility Tests for Bacteria That Grow Aerobically; Approved Standard-Seventh Edition (2006)”. Test strains were grown on appropriate agar plates overnight. A broth containing the test compound diluted serially 2-fold and diluents were dispensed at 100 μL to each well of a 96-well microplate. As a growth control, a well with a broth not containing the test compound was also prepared. Colonies grown on the plates were suspended in saline, adjusted to 0.5 McFarland (OD625=0.08 to 0.10) using a colorimeter, and then diluted 10-fold with saline. The bacterial suspension was inoculated at 4 μL into each well of the microplate using a bacterial suspension inoculation apparatus. The inoculated microplate was incubated at 35° C. overnight (about 20 hours). The growth condition was observed by the naked eye, and the minimum concentration to inhibit bacterial proliferation was defined as a minimum inhibitory concentration (MIC).

[7] = test system: Haemophilus influenzae ATCC 49247; assay: as above; type: cell-based; conditions: ATCC49247
Experimental: as §1

[8] = test system: Streptococcus pneumoniae ATCC 49619; assay: as above; type: cell-based; conditions: ATCC49619
Experimental: as §1

[9] = Solubility in water (JP1 / JP2 fluids); type: physicochemical; conditions: thermodynamic from solid
Experimental: A 10 mmol/L solution of the test compound was prepared in DMSO and dispensed 100 μL of 10 mmol/L DMSO stock solutions into labeled glass tubes in duplicate, one for Japanese Pharmacopeia First Fluid (JP1) and second for Japanese Pharmacopeia Second Fluid (JP2). After evaporation of DMSO from each tube, 500 μL of JP1 and JP2 fluid were added in each tube, respectively. These tubes were sonicated for 1 minute and placed on shaker for 30 minutes with an interval of 30 seconds at every 5 minute. Tubes were placed in dark at room temperature for 1 hour and solution was filtered through membrane filter. The filtrate was diluted 2-fold and 10-fold. The resulting test solutions was analyzed and quantified against the standards using UPLC (standard preparation—10 mmol/L solution in DMSO is serially diluted with 50% aqueous acetonitrile solution to prepare 2 solutions; 100 μmol/L standard solution and 5 μmol/L standard solutions).

[10] = test system: Staphylococcus aureus; assay: Neutropenic mouse thigh or calf muscle infection model; type: in vivo; conditions: neutropenic mice, compared with linezolid
Description: After culture in broth medium (i) suitable diluent of a bacterial suspension of the Staphylococcus aureus strain, or (ii) equivalent mixture of suitable diluent of a bacterial suspension of the Enterococcus faecium strain and a 10% mucin suspension were used as the inoculum. The bacterial suspension was inoculated under anesthesia with a ketamine-xylazine mixture into the thigh or calf muscle of Swiss albino mice or ICR mice (4- to 6-week-old) compromised by the cyclophosphamide administration. The drug was administered to the mice 1 to 8 times at an interval of 3 to 24 hours. The number of bacteria in the thigh or calf muscle was counted for the non-treated group immediately before initial administration of the drug (pre-control), for the non-treated group (post-control) and for the drug-administered group on the next day of administration of the drug and infection. A change in the number of bacteria in the thigh or calf muscle was used as an index of therapeutic effect.

[11] = Change of weight when relative humidity varied stepwise; type: physicochemical
Experimental: The Form I thus obtained was characterized by i) the diffraction pattern obtained from powder X-ray diffraction analysis (CuK, λ=1.54 Å, scan rate=20°/min) (FIG. 2) and ii) the thermogravimetric analysis pattern (TG/DTA pattern) obtained from measurement of sample (3 mg) at heating rate of about 10° C./minute (FIG. 3). […] Further, the pattern of change of weight of the sample was shown (FIG. 4), which was observed when relative humidity was varied stepwise.
The thermogravimetric analysis pattern (TG/DTA pattern) obtained from measurement of sample (3 mg) at heating rate of about 10° C./minute is as depicted in FIG. 6. […] Further, the pattern of change of weight of the sample was shown in FIG. 7, which was observed when relative humidity was varied stepwise.

Which results are given for `CCc1[nH]c(C(=O)N[C@@H]2CCN(c3nnc(C(C)O)s3)C[C@@H]2OC)nc1Cl` (mixture of isomers) [Compound No. 3, 4-Chloro-5-ethyl-N-{(3S,4R)-1-[5-(1-hydroxyethyl)-1,3,4-thiadiazol-2-yl]-3-methoxypiperidin-4-yl}-1H-imidazole-2-carboxamide]?
MIC [1]: 0.5 µg/mL; MIC [2]: 0.125 µg/mL; bioavailability [3]: 51%; bioavailability [4]: 100%

What does the source list for `CCc1[nH]c(C(=O)N[C@@H]2CCN(c3nnc([C@@H](C)O)s3)C[C@@H]2OC)nc1Cl` (single isomer, unassigned) [Compound No. 4]?
pIC50 [5]: 7.84; MIC [6]: 0.25 µg/mL (≈ 0.603 µM); MIC [7]: 1 µg/mL (≈ 2.41 µM); MIC [8]: 0.25 µg/mL (≈ 0.603 µM); MIC [1]: 0.5 µg/mL (≈ 1.21 µM); MIC [2]: 0.06 µg/mL (≈ 0.145 µM); solubility at 30 min ([9]; Japanese Pharmacopeia First Fluid (JP1), pH 1.2, simulated gastric fluid, read-out: Solubility JP1): 612 µg/mL (≈ 1470 µM); solubility at 30 min ([9]; Japanese Pharmacopeia Second Fluid (JP2), pH 6.8, aqueous buffer, read-out: Solubility JP2): 304 µg/mL (≈ 733 µM); bioavailability [4]: 92%; therapeutic effect against Staphylococcus aureus (number of bacteria in thigh or calf muscle) [10]: equivalent to or higher than linezolid

For `CCc1[nH]c(C(=O)N[C@@H]2CCN(c3nnc(C(C)(C)O)s3)C[C@@H]2OC)nc1Cl` [Form I, 4-chloro-5-ethyl-N-{(3S,4R)-1-[5-(2-hydroxypropan-2-yl)-1,3,4-thiadiazol-2-yl]-3-methoxypiperidin-4-yl}-1H-imidazole-2-carboxamide], which change of weight [11] is on record?
Its change of weight is at most 0.3%.

For `CCc1[nH]c(C(=O)N[C@@H]2CCN(c3nnc(C(C)(C)O)s3)C[C@@H]2OC)nc1Cl` [Form II, 4-chloro-5-ethyl-N-{(3S,4R)-1-[5-(2-hydroxypropan-2-yl)-1,3,4-thiadiazol-2-yl]-3-methoxypiperidin-4-yl}-1H-imidazole-2-carboxamide], which “weight change due absorption or desorption of moisture” value [11] is on record?
The value was “no weight change”.
